The results in this text go back to US11365177B2, “Chemical uncouplers of respiration and methods of use thereof” (Dana-Farber Cancer Institute, Inc., priority 2017, dated 2022).

Peptide text beside a SMILES is read from it. * marks the point of attachment. Oleoyl = CCCCCCCC/C=C\CCCCCCCC(=O)*

In one assay the test system is C2C12 cells. As to the kind of experiment: Measurement of cellular respiration (Seahorse), uncoupling bioactivity. It is filed as cell-based. As to conditions: Mus musculus, Table 2, various head groups, 50 μM compound, maximal increase versus basal oligomycin-treated respiration, means SEM, n=3-6/group, read-out: % stimulation of respiration (baseline = 100%). The method, then:
Oligomycin was purchased from EMD Millipore, and FCCP and rotenone were purchased from Sigma. C2C12 cells were seeded at 35,000 cells/well in an XF24 cell culture microplate (V7-PS, Seahorse Bioscience) and analyzed the following day. On the day of analysis, the cells were washed once with Seahorse respiration buffer (8.3 g/l DMEM, 1.8 g/l NaCl, 1 mM pyruvate, 20 mM glucose, pen/strep), placed in 0.5 ml Seahorse respiration buffer, and incubated in a CO2-free incubator for 1 h. Port injection solutions were prepared as follows (final concentrations in assay in parentheses): 10 μM oligomycin (1 μM final), 500 μM indicated compound (50 μM final), 2 μM FCCP (0.2 μM final), and 30 μM rotenone (3 μM final). The Seahorse program was run as follows: basal measurement, 3 cycles; inject port A (oligomycin), 3 cycles; inject port B (compounds), 8 cycles; inject port C (FCCP), 3 cycles; inject port D (rotenone), 3 cycles. Each cycle consisted of mix 2 min, wait 0 min, and measure 2 min. For data expressed as a percentage of oligomycin-treated basal, the respiration at cycle 6 was normalized to 100%, and the maximum respiration at any time point between cycles 7 and 15 inclusive was used.
Tables 1-4 show uncoupling bioactivity of compounds of the disclosure with different fatty acid side chains. Respiration in C2C12 cells is shown as maximal increases versus basal oligomycin-treated respiration, which is normalized to 100%. Data are shown as means SEM, n=3-6/group.
Regarding `CCCCCCCC/C=C\CCCCCCCC(=O)N[C@@H](Cc1ccccc1)C(=O)O` [Compound 1, Oleoyl-L-phenylalanine], the activity at 50 µM turned out to be 161 ± 12%.
Same read-out and setting: to `CCCCCCCC/C=C\CCCCCCCC(=O)N[C@H](Cc1ccccc1)C(=O)O` [Compound 2, Oleoyl-D-phenylalanine] belongs 173 ± 9%.
Consider `CCCCCCCC/C=C\CCCCCCCC(=O)NCCc1ccccc1` [Compound 3, N-phenethyloleamide], for which the activity at 50 µM worked out at 104 ± 4%.
Still for that read-out and setting: under `CCCCCCCC/C=C\CCCCCCCC(=O)N[C@@H](CC(C)C)C(=O)O` [Compound 4, Oleoyl-L-leucine] stands 178 ± 13%; under `CCCCCCCC/C=C\CCCCCCCC(=O)N[C@H](C(=O)O)[C@@H](C)CC` [Compound 5, Oleoyl-L-isoleucine], 167 ± 14%.
The same measure, in the same setting: to `CCCCCCCC/C=C\CCCCCCCC(=O)N[C@@H](CCC(N)=O)C(=O)O` [Compound 6, Oleoyl-L-glutamine] belongs 164 ± 4%; to `CCCCCCCC/C=C\CCCCCCCC(=O)N1CCC[C@H]1C(=O)O` [Compound 7, Oleoyl-L-proline], 182 ± 7%.
Same read-out and setting: under `CCCCCCCC/C=C\CCCCCCCC(=O)N[C@@H](Cc1c[nH]c2ccccc12)C(=O)O` [Compound 8, Oleoyl-L-tryptophan] stands 147 ± 9%; under `CCCCCCCC/C=C\CCCCCCCC(=O)N[C@@H](CCCCN)C(=O)O` [Compound 9, Oleoyl-L-lysine], 108 ± 4%; under `CCCCCCCC/C=C\CCCCCCCC(=O)N[C@@H](Cc1ccc(O)cc1)C(=O)O` [Compound 10, Oleoyl-L-tyrosine], 105 ± 13%.
For the compound `CCCCCCCC/C=C\CCCCCCCC(=O)N[C@@H](CCC(=O)O)C(=O)O` [Compound 11, Oleoyl-L-glutamic acid], the activity at 50 µM came to 106 ± 7%.
Still for that read-out and setting: under `CCCCCCCC/C=C\CCCCCCCC(=O)NCC(=O)NCC(=O)O` [Compound 12, Oleoylglycylglycine] (Oleoyl-Gly-Gly-OH) stands 206 ± 32%.
The same measure, in the same setting: to `CCCCCCCC/C=C\CCCCCCCC(=O)NCCC(=O)O` [Compound 13, 3-Oleamidopropanoic acid] belongs 185 ± 10%.

The same assay, now with this note: Mus musculus, Table 3, various fatty acid side chains, 50 μM compound, maximal increase versus basal oligomycin-treated respiration, means SEM, n=3-6/group, read-out: % stimulation of respiration (baseline = 100%).
Regarding `CCCCCCCCCCCC(=O)N[C@@H](Cc1ccccc1)C(=O)O` [Compound 14, Dodecanoyl-L-phenylalanine], the activity at 50 µM turned out to be 96 ± 4%.
Same read-out and setting: under `CCCCCCCCCCCCCCCC(=O)N[C@@H](Cc1ccccc1)C(=O)O` [Compound 15, Palmitoyl-L-phenylalanine] stands 180 ± 20%; under `CCCCCCCCCCCCCCCCCC(=O)N[C@@H](Cc1ccccc1)C(=O)O` [Compound 16, Stearoyl-L-phenylalanine], 148 ± 12%; under `CCCCCCCCCCCCCCCCCCCC(=O)N[C@@H](Cc1ccccc1)C(=O)O` [Compound 17, Icosanoyl-L-phenylalanine], 95 ± 8%.
Still for that read-out and setting: under `CCCCCCCCCCCCCCCCCCCCCC(=O)N[C@@H](Cc1ccccc1)C(=O)O` [Compound 18, Docosanoyl-L-phenylalanine] stands 100 ± 3%; under `CCCCC/C=C\C/C=C\CCCCCCCC(=O)N[C@@H](Cc1ccccc1)C(=O)O` [Compound 19, ((9Z,12Z)-Octadeca-9,12-dienoyl)-L-phenylalanine], 218 ± 10%.
For the compound `CCC/C=C\C/C=C\C/C=C\CCCCCCC(=O)N[C@@H](Cc1ccccc1)C(=O)O` [Compound 20, ((8Z,11Z,14Z)-Octadeca-8,11,14-trienoyl)-L-phenylalanine], the activity at 50 µM is 109 ± 12%.
Still for that read-out and setting: under `CCCCCCCC/C=C/CCCCCCCC(=O)N[C@@H](Cc1ccccc1)C(=O)O` [Compound 21, (E)-Octadec-9-enoyl-L-phenylalanine] stands 107 ± 3%; under `CCCCCCCCCCC/C=C\CCCCC(=O)N[C@@H](Cc1ccccc1)C(=O)O` [Compound 22, (Z)-Octadec-6-enoyl-L-phenylalanine], 110 ± 12%; under `CCCCCC/C=C\CCCCCCCCCC(=O)N[C@@H](Cc1ccccc1)C(=O)O` [Compound 23, (Z)-Octadec-11-enoyl-L-phenylalanine], 115 ± 8%.
Regarding `CCCCCCCC/C=C\CCCCCCCCCC(=O)N[C@@H](Cc1ccccc1)C(=O)O` [Compound 24, (Z)-Icos-11-enoyl-L-phenylalanine], the activity at 50 µM amounted to 103 ± 3%.
As to `CCCCC/C=C\C/C=C\C/C=C\C/C=C\CCCC(=O)N[C@@H](Cc1ccccc1)C(=O)O` [Compound 25, ((5Z,8Z,11Z,14Z)-Icosa-5,8,11,14-tetraenoyl)-L-phenylalanine], the activity at 50 µM was found to be 200 ± 12%.
On the same count and under the same terms, under `CC/C=C\C/C=C\C/C=C\C/C=C\C/C=C\CCCC(=O)N[C@@H](Cc1ccccc1)C(=O)O` [Compound 26, ((5Z,8Z,11Z,14Z,17Z)-Icosa-5,8,11,14,17-pentaenoyl)-L-phenylalanine] stands 259 ± 43%.
On the same count and under the same terms, under `CC/C=C\C/C=C\C/C=C\C/C=C\C/C=C\C/C=C\CCC(=O)N[C@@H](Cc1ccccc1)C(=O)O` [Compound 27, ((4Z,7Z,10Z,13Z,16Z,19Z)-Docosa-4,7,10,13,16,19-hexaenoyl)-L-phenylalanine] stands 166 ± 11%.

The same assay, now with this note: Mus musculus, Table 4, urea analogs, 50 μM compound, maximal increase versus basal oligomycin-treated respiration, means SEM, n=3-6/group, read-out: % stimulation of respiration (baseline = 100%).
Turning to `CCCCCCCC/C=C\CCCCCCCCNC(=O)NCC(=O)O` [Compound 28, (Z)-(Octadec-9-en-1-ylcarbamoyl)glycine], the activity at 50 µM was 104 ± 3%.
Still for that read-out and setting: under `CCCCCCCC/C=C\CCCCCCCCNC(=O)N[C@@H](Cc1ccccc1)C(=O)O` [Compound 29, (Z)-(Octadec-9-en-1-ylcarbamoyl)-L-phenylalanine] stands 97 ± 5%.

The assay is the same for the next values; noted with them: Mus musculus, Table 5, cyclic head groups, 50 μM compound, maximal increase versus basal oligomycin-treated respiration, means SEM, n=3-6/group, read-out: % stimulation of respiration (baseline = 100%).
`CCCCCCCC/C=C\CCCCCCCC(=O)N1CCCC[C@H]1C(=O)O` [Compound 30, (S)-1-Oleoylpiperidine-2-carboxylic acid]: the activity at 50 µM was 174 ± 3%.
With `CCCCCCCC/C=C\CCCCCCCC(=O)N1Cc2ccccc2C[C@H]1C(=O)O` [Compound 31, (S)-2-Oleoyl-1,2,3,4-tetrahydroisoquinoline-3-carboxylic acid], the activity at 50 µM amounted to 187 ± 19%.
Same read-out and setting: to `CCCCCCCC/C=C\CCCCCCCC(=O)N1CCc2ccccc2C1C(=O)O` (stereo not drawn) [Compound 32, 2-Oleoyl-1,2,3,4-tetrahydroisoquinoline-1-carboxylic acid] belongs 216 ± 17%; to `CCCCCCCC/C=C\CCCCCCCC(=O)N1c2ccccc2C[C@H]1C(=O)O` [Compound 35, (S)-1-Oleoylindoline-2-carboxylic acid], 146 ± 5%.
